From US10023558B2, “Compounds” (CHIESI FARMACEUTICI S.P.A., priority 2016, dated 2018) come the findings set out here.

The assay has as its target T1, human neutrophil elastase (HNE) (Homo sapiens, UniProt P08246).
T1 construct: purchased Sigma E8140
T1 sequence (P08246 30-247 limits assumed): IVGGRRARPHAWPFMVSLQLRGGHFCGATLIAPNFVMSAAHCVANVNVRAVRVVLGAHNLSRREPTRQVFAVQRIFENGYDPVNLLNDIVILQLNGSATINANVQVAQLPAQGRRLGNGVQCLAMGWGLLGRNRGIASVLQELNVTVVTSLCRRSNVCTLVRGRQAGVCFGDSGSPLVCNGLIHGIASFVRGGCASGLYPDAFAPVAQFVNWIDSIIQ
Put plainly: HNE Enzyme Assay (fluorogenic peptide substrate MeOSuc-Ala-Ala-Pro-Val-AMC). Type of assay: biochemical. The settings on record: human leukocyte elastase 0.00072 U/mL, substrate 100 μM, 25° C., 30 minutes, at least two separate experiments; read-out: HNE inhibition (IC50 values). The gist of the method: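 Human leukocyte elastase (0.00072 U/mL) with 100 μM MeOSuc-AAPV-AMC in Tris pH 7.5 buffer with NaCl, CaCl2, Brij-35, 1% DMSO, 30 min at 25° C, stopped with soybean trypsin inhibitor. AMC fluorescence (ex 380/em 460 nm); IC50 from concentration-response as % inhibition of control, at least two experiments.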

Where only a bound is given, the exact number is not on record here.

As usually defined, the IC50 is the midpoint of a concentration-inhibition curve. For `Cc1c(-c2ccnn2-c2ccc(C#N)cc2)n(C(=O)N[C@@H](C)c2nc(C[N+](C)(C)C)no2)c(=O)n1-c1cccc(C(F)(F)F)c1` [Example 60, [5-((S)-1-{[5-[2-(4-Cyano-phenyl)-2H-pyrazol-3-yl]-4-methyl-2-oxo-3-(3-trifluoromethyl-phenyl)-2,3-dihydro-imidazole-1-carbonyl]-amino}-ethyl)-[1,2,4]oxadiazol-3-ylmethyl]-trimethyl-ammonium benzene sulfonate], the IC50 was below 1 nM.
With `Cc1c(-c2ccnn2-c2ccc(C#N)cc2)n(C(=O)NC2CCN(C(=O)OCc3ccccc3)CC2)c(=O)n1-c1cccc(C(F)(F)F)c1` [Example 3, 4-{[5-[2-(4-Cyano-phenyl)-2H-pyrazol-3-yl]-4-methyl-2-oxo-3-(3-trifluoromethyl-phenyl)-2,3-dihydro-imidazole-1-carbonyl]-amino}-piperidine-1-carboxylic acid benzyl ester], the IC50 is below 1 nM.
The value for `Cc1c(-c2ccnn2-c2ccc(C#N)cc2)n(C(=O)NC2CCN(C(=O)CC[N+](C)(C)C)CC2)c(=O)n1-c1cccc(C(F)(F)F)c1` [Example 65, [3-(4-{[5-[2-(4-Cyano-phenyl)-2H-pyrazol-3-yl]-4-methyl-2-oxo-3-(3-trifluoromethyl-phenyl)-2,3-dihydro-imidazole-1-carbonyl]-amino}-piperidin-1-yl)-3-oxo-propyl]-trimethyl-ammonium benzene sulfonate] was below 1 nM.
`Cc1c(-c2ccnn2-c2ccc(C#N)cc2)n(C(=O)NC2(c3ncc(CN(C)C)o3)CC2)c(=O)n1-c1cccc(C(F)(F)F)c1` [Example 23, 5-[2-(4-Cyano-phenyl)-2H-pyrazol-3-yl]-4-methyl-2-oxo-3-(3-trifluoromethyl-phenyl)-2,3-dihydro-imidazole-1-carboxylic acid [1-(5-dimethylaminomethyl-oxazol-2-yl)-cyclopropyl]-amide]: the IC50 is below 1 nM.
On to `CC[N+](C)(C)C[C@H]1CC[C@H](NC(=O)n2c(-c3ccnn3-c3ccc(C#N)cc3)c(C)n(-c3cccc(C(F)(F)F)c3)c2=O)CC1` [Example 31, (Trans-4-{[5-[2-(4-cyano-phenyl)-2H-pyrazol-3-yl]-4-methyl-2-oxo-3-(3-trifluoromethyl-phenyl)-2,3-dihydro-imidazole-1-carbonyl]-amino}-cyclohexylmethyl)-ethyl-dimethyl-ammonium benzene sulfonate], for which the IC50 was below 1 nM.
For the compound `Cc1c(-c2nccn2-c2ccc(C#N)cc2)n(C(=O)NC2CCN(C(=O)C[N+](C)(C)C)CC2)c(=O)n1-c1cccc(C(F)(F)F)c1` [Example 94, [2-(4-{[1-(4-Cyano-phenyl)-5′-methyl-2′-oxo-1′-(3-trifluoromethyl-phenyl)-1′,2′-dihydro-1H-[2,4′]biimidazolyl-3′-carbonyl]-amino}-piperidin-1-yl)-2-oxo-ethyl]-trimethyl-ammonium benzene sulfonate], the IC50 is below 1 nM.
The value for `Cc1c(-c2ccnn2-c2ccc(C#N)cc2)n(C(=O)N[C@@H](C)C(=O)NC2CC[N+](C)(C)CC2)c(=O)n1-c1cccc(C(F)(F)F)c1` [Example 57, 4-((S)-2-{[5-[2-(4-Cyano-phenyl)-2H-pyrazol-3-yl]-4-methyl-2-oxo-3-(3-trifluoromethyl-phenyl)-2,3-dihydro-imidazole-1-carbonyl]-amino}-propionylamino)-1,1-dimethyl-piperidinium benzene sulfonate] was below 1 nM; that for `Cc1c(-c2ccnn2-c2ccc(C#N)cc2)n(C(=O)N[C@H]2CC[C@@H](C[N+](C)(C)Cc3ccccc3)CC2)c(=O)n1-c1cccc(C(F)(F)F)c1` [Example 54, Benzyl-(cis-4-{[5-[2-(4-cyano-phenyl)-2H-pyrazol-3-yl]-4-methyl-2-oxo-3-(3-trifiuoromethyl-phenyl)-2,3-dihydro-imidazole-1-carbonyl]-amino}-cyclohexylmethyl)-dimethyl-ammonium bromide] was 1 to 10 nM.
With `Cc1c(-c2ccnn2-c2ccc(C#N)cc2)n(C(=O)N[C@H]2CC[C@H](N(C)C)CC2)c(=O)n1-c1cccc(C(F)(F)F)c1` [Example 9, 5-[2-(4-Cyano-phenyl)-2H-pyrazol-3-yl]-4-methyl-2-oxo-3-(3-trifluoromethyl-phenyl)-2,3-dihydro-imidazole-1-carboxylic acid (trans-4-dimethylamino-cyclohexyl)-amide], the half-maximal inhibitory concentration (IC50) was below 1 nM.
With `Cc1c(-c2ccnn2-c2ccc(C#N)cc2)n(C(=O)N[C@@H]2CC[N+](C)(C)C2)c(=O)n1-c1cccc(C(F)(F)F)c1` [Example 33, (R)-3-{[5-[2-(4-Cyano-phenyl)-2H-pyrazol-3-yl]-4-methyl-2-oxo-3-(3-trifluoromethyl-phenyl)-2,3-dihydro-imidazole-1-carbonyl]-amino}-1,1-dimethyl-pyrrolidinium benzenesulfonate], the 50% inhibitory concentration (IC50) is 1 to 10 nM.
On to `Cc1c(-c2ccnn2-c2ccc(C#N)cc2)n(C(=O)N[C@H]2CC[C@H](C(=O)N(C)CC[N+](C)(C)C)CC2)c(=O)n1-c1cccc(C(F)(F)F)c1` [Example 89, {2-[(Trans-4-{[5-[2-(4-cyano-phenyl)-2H-pyrazol-3-yl]-4-methyl-2-oxo-3-(3-trifluoromethyl-phenyl)-2,3-dihydro-imidazole-1-carbonyl]-amino}-cyclohexanecarbonyl)-methyl-amino]-ethyl}-trimethyl-ammonium benzene sulfonate], for which the IC50 was below 1 nM.
As to `Cc1c(-c2ccnn2-c2ccc(C#N)cc2)n(C(=O)NC2CCN(C(=O)OCC[N+](C)(C)C)CC2)c(=O)n1-c1cccc(C(F)(F)F)c1` [Example 93, [2-(4-{[5-[2-(4-Cyano-phenyl)-2H-pyrazol-3-yl]-4-methyl-2-oxo-3-(3-trifluoromethyl-phenyl)-2,3-dihydro-imidazole-1-carbonyl]-amino}-piperidine-1-carbonyloxy)-ethyl]-trimethyl-ammonium benzene sulfonate], the IC50 is below 1 nM.
Turning to `Cc1c(-c2ccnn2-c2ccc(C#N)cc2)n(C(=O)N[C@H]2CC[C@H]([N+](C)(C)Cc3ccccc3)CC2)c(=O)n1-c1cccc(C(F)(F)F)c1` [Example 43, Benzyl-(trans-4-{[5-[2-(4-cyano-phenyl)-2H-pyrazol-3-yl]-4-methyl-2-oxo-3-(3-trifluoromethyl-phenyl)-2,3-dihydro-imidazole-1-carbonyl]-amino}-cyclohexyl)-dimethyl-ammonium bromide], the 50% inhibitory concentration (IC50) was below 1 nM.
Under `Cc1c(-c2ccnn2-c2ccc(C#N)cc2)n(C(=O)N[C@H]2C[C@H](C[N+](C)(C)C)C2)c(=O)n1-c1cccc(C(F)(F)F)c1` [Example 68, (Trans-3-{[5-[2-(4-cyano-phenyl)-2H-pyrazol-3-yl]-4-methyl-2-oxo-3-(3-trifluoromethyl-phenyl)-2,3-dihydro-imidazole-1-carbonyl]-amino}-cyclobutylmethyl)-trimethyl-ammonium benzene sulfonate] stands below 1 nM; under `Cc1c(-c2ccnn2-c2ccc(C#N)cc2)n(C(=O)N[C@H]2CC[C@H]([N+](C)(C)Cc3ncon3)CC2)c(=O)n1-c1cccc(C(F)(F)F)c1` [Example 72, (Trans-4-{[5-[2-(4-cyano-phenyl)-2H-pyrazol-3-yl]-4-methyl-2-oxo-3-(3-trifluoromethyl-phenyl)-2,3-dihydro-imidazole-1-carbonyl]-amino}-cyclohexyl)-dimethyl-[1,2,4]oxadiazol-3-ylmethyl-amnionium chloride], below 1 nM.
Regarding `Cc1c(-c2ccnn2-c2ccc(C#N)cc2)n(C(=O)NC2CCC3(CC2)CC[N+](C)(C)CC3)c(=O)n1-c1cccc(C(F)(F)F)c1` [Example 66, 9-{[5-[2-(4-Cyano-phenyl)-2H-pyrazol-3-yl]-4-methyl-2-oxo-3-(3-trifluoromethyl-phenyl)-2,3-dihydro-imidazole-1-carbonyl]-amino}-3,3-dimethyl-3-azonia-spiro[5.5]undecane benzene sulfonate], the half-inhibitory concentration (IC50) is below 1 nM.
Turning to `Cc1c(-c2ccnn2-c2ccc(C#N)cc2)n(C(=O)N[C@H]2CC[C@H]([N+](C)(C)C)CC2)c(=O)n1-c1cccc(C(F)(F)F)c1` [Example 41, (Trans-4-{[5-[2-(4-cyano-phenyl)-2H-pyrazol-3-yl]-4-methyl-2-oxo-3-(3-trifluoromethyl-phenyl)-2,3-dihydro-imidazole-1-carbonyl]-amino}-cyclohexyl)-trimethyl-ammonium benzene sulfonate], the IC50 is below 1 nM.
As for `Cc1c(-c2ccnn2-c2ccc(C#N)cc2)n(C(=O)NC2CCN(C(=O)C[N+](C)(C)C)CC2)c(=O)n1-c1cccc(C(F)(F)F)c1` [Example 61, [2-(4-{[5-[2-(4-Cyano-phenyl)-2H-pyrazol-3-yl]-4-methyl-2-oxo-3-(3-trifluoromethyl-phenyl)-2,3-dihydro-imidazole-1-carbonyl]-amino}-piperidin-1-yl)-2-oxo-ethyl]-trimethyl-ammonium benzene sulfonate], the IC50 was below 1 nM.
The value for `Cc1c(-c2ccnn2-c2ccc(C#N)cc2)n(C(=O)NC(C)(C)c2ncc(CN(C)C)o2)c(=O)n1-c1cccc(C(F)(F)F)c1` [Example 24, 5-[2-(4-Cyano-phenyl)-2H-pyrazol-3-yl]-4-methyl-2-oxo-3-(3-trifluoromethyl-phenyl)-2,3-dihydro-imidazole-1-carboxylic acid [1-(5-dimethylaminomethyl-oxazol-2-yl)-1-methyl-ethyl]-amide] was below 1 nM.
